Values of other authors in patent publication US20250082604A1, “COMPOSITIONS CONTAINING A HIGH CONTENT OF PROANTHOCYANIDINS AND METHODS OF PREPARATION AND USE THEREOF” (priority 2022, published 2025).

Tested on: human HepG2 cells
Settings: literature data (dx.doi.org/10.3390/antiox9060471)

SMILES	AOP1 EC50, data from the literature [µg/mL]
COc1ccc(O)c(C(C)(C)C)c1 [BHA]	31.54
Cc1cc(C(C)(C)C)c(O)c(C(C)(C)C)c1 [BHT]	34.25
Cc1c(C)c2c(c(C)c1O)CCC(C)(C(=O)O)O2 (stereo not shown) [Trolox]	138.50
Oc1ccc(C=Cc2cc(O)cc(O)c2)cc1 [resveratrol]	64.66
